In patent publication US12226401B2, “Molecular genetic approach to treatment and diagnosis of alcohol and drug dependence” (priority 2010, dated 2025):

System: alcohol dependent individuals
Assay: Randomized, double-blind, placebo-controlled, 12-week clinical trial of ondansetron vs placebo in alcohol dependent individuals by genotype: drinks per drinking day (DDD)
Format: in vivo, human
Settings: for Drinks per Drinking Days, Least Squares Mean (Estimated Mean): OND
Description: Two hundred and seventy eight male and female alcohol dependent individuals were entered into a randomized, double-blind, placebo-controlled, 12-week clinical trial. These individuals were divided into TT vs. […] The polymorphisms in 3''-UTR region of a gene may affect mRNA expression levels by altering their stability. […] Data was transformed to its natural log to correct for skewness. […] In total, ten SNPs in 5HT3a and nine SNPs in 5HT3b genes were analyzed in this study: […]

Cc1nccn1CC1CCc2c(c3ccccc3n2C)C1=O (stereo not drawn) [ondansetron, 9-methyl-3-[(2-methyl-1H-imidazol-1-yl)methyl]-1,2,3,9-tetrahydrocarbazol-4-one]
Estimate, OND vs. Placebo, drinks per drinking days (DDD) (AA or AC (RS1176719, RS17614942)): −2.83 DDD
Estimate, OND vs. Placebo, drinks per drinking days (DDD) (AG or AC (RS1150226, RS17614942)): −2.12 DDD
Estimate, OND vs. Placebo, drinks per drinking days (DDD) (AG or GG (RS1150226, RS1176713)): −2.43 DDD
Least Squares Mean Difference, Drinks per Drinking Days, OND vs. Placebo (Among Comb (LL + TT or AC or AG)): −1.75
Least Squares Mean Difference, Drinks per Drinking Days, Comb vs. Others (Among OND, Comb = LL + TT or AC or AG): −2.21
Least Squares Mean Difference, Drinks per Drinking Days, AG/AA vs. GG (Among OND, RS1150226): −1.91
Least Squares Mean Difference, Drinks per Drinking Days, AC/AA vs. CC (Among OND, RS17614942): −2.13
Least Squares Mean Difference, Drinks per Drinking Days, AC/AA vs. CC (Among OND, model RS17614942 (CC/AA, AC), Table 2G): −2.22
Least Squares Mean Difference, Drinks per Drinking Days, OND vs. Placebo (Among RS1150226 AG/AA): −1.80
Least Squares Mean Difference, Drinks per Drinking Days, OND vs. Placebo (Among RS17614942 AC/AA): −2.51
Least Squares Mean, Drinks per Drinking Days (Comb (LL + TT or AC or AG)): 4.21
Estimate, OND vs. Placebo, drinks per drinking days (DDD) (GG or AC (RS1176713, RS17614942)): −3.08 DDD
Estimate, OND vs. Placebo, drinks per drinking days (DDD) (LL + AA (5-HTTLPR, RS1176719)): −5.22 DDD
Estimate, OND vs. Placebo, drinks per drinking days (DDD) (LL + AA + AC (5-HTTLPR, RS1176719, RS17614942)): −5.96 DDD
Estimate, OND vs. Placebo, drinks per drinking days (DDD) (LL + AC (5-HTTLPR, RS17614942)): −4.24 DDD
Estimate, OND vs. Placebo, drinks per drinking days (DDD) (LL + AG (5-HTTLPR, RS1150226)): −3.06 DDD
Estimate, OND vs. Placebo, drinks per drinking days (DDD) (LL + AG + AC (5-HTTLPR, RS1150226, RS17614942)): −4.09 DDD
Drinks per Drinking Days, Least Squares Estimated Mean Difference (LL + CT/TT: OND vs. Placebo, simplified model): −1.55
Estimate, OND vs. Placebo, drinks per drinking days (DDD) (LL + GG (5-HTTLPR, RS1176713)): −4.48 DDD
Estimate, OND vs. Placebo, drinks per drinking days (DDD) (LL + TT (5-HTTLPR, RS1042173)): −2.08 DDD
Estimate, OND vs. Placebo, drinks per drinking days (DDD) (LL + TT + AA (5-HTTLPR, RS1042173, RS1176719)): −8.50 DDD
Estimate, OND vs. Placebo, drinks per drinking days (DDD) (LL or AA or AC (5-HTTLPR, RS1176719, RS17614942)): −1.55 DDD
Estimate, OND vs. Placebo, drinks per drinking days (DDD) (LL or AC (5-HTTLPR, RS17614942)): −1.53 DDD
Estimate, OND vs. Placebo, drinks per drinking days (DDD) (LL or AG (5-HTTLPR, RS1150226)): −1.37 DDD
Estimate, OND vs. Placebo, drinks per drinking days (DDD) (LL or AG or AC (5-HTTLPR, RS1150226, RS17614942)): −1.43 DDD
Estimate, OND vs. Placebo, drinks per drinking days (DDD) (LL or GG (5-HTTLPR, RS1176713)): −1.60 DDD
Estimate, OND vs. Placebo, drinks per drinking days (DDD) (LL or GG or AC (5-HTTLPR, RS1176713, RS17614942)): −1.57 DDD
Estimate, OND vs. Placebo, drinks per drinking days (DDD) (LL or TT (5-HTTLPR, RS1042173)): −0.87 DDD
Estimate, OND vs. Placebo, drinks per drinking days (DDD) (LL or TT or AA (5-HTTLPR, RS1042173, RS1176719)): −0.99 DDD
Estimate, OND vs. Placebo, drinks per drinking days (DDD) (LL or TT or AA or AC (5-HTTLPR, RS1042173, RS1176719, RS17614942)): −1.02 DDD
Estimate, OND vs. Placebo, drinks per drinking days (DDD) (LL or TT or AC (5-HTTLPR, RS1042173, RS17614942)): −0.97 DDD
Estimate, OND vs. Placebo, drinks per drinking days (DDD) (LL or TT or AG (5-HTTLPR, RS1042173, RS1150226)): −0.94 DDD
Estimate, OND vs. Placebo, drinks per drinking days (DDD) (LL or TT or AG or AC (5-HTTLPR, RS1042173, RS1150226, RS17614942)): −0.93 DDD
Estimate, OND vs. Placebo, drinks per drinking days (DDD) (LL or TT or GG (5-HTTLPR, RS1042173, RS1176713)): −0.94 DDD
Reduction of DDD by ondansetron, carriers vs non-carriers of genotype combination (LL+AC/AA (5HTTLPR + rs17614942)): 3.33 sd
Reduction of DDD by ondansetron, carriers vs non-carriers of genotype combination (LL+CT/TT (5HTTLPR + rs4938056)): 1.82 sd
Drinks per Drinking Days, Least Squares Estimated Mean Difference (OND vs. Placebo, all genotypes, model RS17614942): −0.96
Drinks per Drinking Days, Least Squares Estimated Mean Difference (OND vs. Placebo, all genotypes, model RS17614942 and 5-HTTLPR): −1.13
Drinks per Drinking Days, Least Squares Mean (Estimated Mean) (5-HTTLPR LL, model 5-HTTLPR and RS1062613): 4.80
Drinks per Drinking Days, Least Squares Mean (Estimated Mean) (5-HTTLPR LL, model 5-HTTLPR and RS1150226): 4.59
Drinks per Drinking Days, Least Squares Mean (Estimated Mean) (5-HTTLPR LL, model RS4938056 and 5-HTTLPR): 5.18
Drinks per Drinking Days, Least Squares Mean (Estimated Mean) (5-HTTLPR LL, model RS17614942 and 5-HTTLPR): 4.43
Drinks per Drinking Days, Least Squares Mean (Estimated Mean) (5-HTTLPR LS/SS, model 5-HTTLPR and RS1062613): 6.19
Drinks per Drinking Days, Least Squares Mean (Estimated Mean) (5-HTTLPR LS/SS, model 5-HTTLPR and RS1150226): 5.86
Drinks per Drinking Days, Least Squares Mean (Estimated Mean) (5-HTTLPR LS/SS, model RS4938056 and 5-HTTLPR): 6.54
Drinks per Drinking Days, Least Squares Mean (Estimated Mean) (5-HTTLPR LS/SS, model RS17614942 and 5-HTTLPR): 5.76
Drinks per Drinking Days, Least Squares Mean (Estimated Mean) (LL + CT/TT, simplified model): 4.61
Drinks per Drinking Days, Least Squares Mean (Estimated Mean) (Others (not LL + CT/TT), simplified model): 6.25
Drinks per Drinking Days, Least Squares Mean (Estimated Mean) (RS1062613 TC/CC, model 5-HTTLPR and RS1062613): 4.98
Drinks per Drinking Days, Least Squares Mean (Estimated Mean) (RS1062613 TC/CC, model RS1062613): 5.13
Drinks per Drinking Days, Least Squares Mean (Estimated Mean) (RS1062613 TT, model 5-HTTLPR and RS1062613): 6.02
Drinks per Drinking Days, Least Squares Mean (Estimated Mean) (RS1062613 TT, model RS1062613): 6.19
Drinks per Drinking Days, Least Squares Mean (Estimated Mean) (RS1150226 AG/AA, model 5-HTTLPR and RS1150226): 4.60
Drinks per Drinking Days, Least Squares Mean (Estimated Mean) (RS1150226 AG/AA, model RS1150226): 4.58
Drinks per Drinking Days, Least Squares Mean (Estimated Mean) (RS1150226 GG, model 5-HTTLPR and RS1150226): 5.85
Drinks per Drinking Days, Least Squares Mean (Estimated Mean) (RS1150226 GG, model RS1150226): 6.04
Drinks per Drinking Days, Least Squares Mean (Estimated Mean) (RS4938056 CC, model RS4938056): 6.67
Drinks per Drinking Days, Least Squares Mean (Estimated Mean) (RS4938056 CC, model RS4938056 and 5-HTTLPR): 6.42
Drinks per Drinking Days, Least Squares Mean (Estimated Mean) (RS4938056 CT/TT, model RS4938056): 5.43
Drinks per Drinking Days, Least Squares Mean (Estimated Mean) (RS4938056 CT/TT, model RS4938056 and 5-HTTLPR): 5.29
Drinks per Drinking Days, Least Squares Mean (Estimated Mean) (RS17614942 AC/AA, model RS17614942): 4.40
Drinks per Drinking Days, Least Squares Mean (Estimated Mean) (RS17614942 AC/AA, model RS17614942 and 5-HTTLPR): 4.37
Drinks per Drinking Days, Least Squares Mean (Estimated Mean) (RS17614942 CC, model RS17614942): 6.00
Drinks per Drinking Days, Least Squares Mean (Estimated Mean) (RS17614942 CC, model RS17614942 and 5-HTTLPR): 5.82
Drinks per Drinking Days, Least Squares Mean (Estimated Mean) (all genotypes, model 5-HTTLPR and RS1062613): 5.50
Drinks per Drinking Days, Least Squares Mean (Estimated Mean) (all genotypes, model 5-HTTLPR and RS1150226): 5.23
Drinks per Drinking Days, Least Squares Mean (Estimated Mean) (all genotypes, model RS1062613): 5.66
Drinks per Drinking Days, Least Squares Mean (Estimated Mean) (all genotypes, model RS1150226): 5.31
Drinks per Drinking Days, Least Squares Mean (Estimated Mean) (all genotypes, model RS4938056): 6.05
Drinks per Drinking Days, Least Squares Mean (Estimated Mean) (all genotypes, model RS4938056 and 5-HTTLPR): 5.86
Drinks per Drinking Days, Least Squares Mean (Estimated Mean) (all genotypes, model RS17614942): 5.20
Drinks per Drinking Days, Least Squares Mean (Estimated Mean) (all genotypes, model RS17614942 and 5-HTTLPR): 5.09
Drinks per Drinking Days, Least Squares Mean (Estimated Mean) (all genotypes, simplified model, combined genotype LL + CT/TT vs Others): 5.43
Least Squares Mean, Drinks per Drinking Days (Others (not LL + TT or AC or AG)): 6.42
Estimate, OND vs. Placebo, drinks per drinking days (DDD) (RS1042173 (TT)): −0.86 DDD
Least Squares Mean, Drinks per Drinking Days (RS1150226 AG (as printed, Table 3F)): 6.08
Least Squares Mean, Drinks per Drinking Days (RS1150226 AG/AA): 4.20
Least Squares Mean, Drinks per Drinking Days (RS1150226 GG): 6.11
Least Squares Mean, Drinks per Drinking Days (RS1150226 GG/AA (as printed, Table 3F)): 4.19
Least Squares Mean, Drinks per Drinking Days (RS17614942 AC): 3.87
Least Squares Mean, Drinks per Drinking Days (RS17614942 AC/AA): 3.90
